Measurements taken from PMC2877818, “Thermodynamics of RTA3 peptide binding to membranes and consequences for antimicrobial activity^” (Biochimica et Biophysica Acta, 2010).
Like-named read-outs stand apart in the source and are kept apart here.

Legend:
[1] = test system: E. coli 345-2 outer membrane; experiment: Outer membrane permeabilization to nitrocefin; settings: read-out: OM permeabilization: peptide concentration resulting in half-maximal translocated substrate turnover, triplicate
Method: Outer and inner membrane permeabilities were determined as described previously [16]. E. coli cells overexpressing β-lactamase were grown to logarithmic phase, washed, and resuspended (10^8 CFU/mL) in 10 mM HEPES buffer pH 7.4. About 90 µL of 1 × 10^7 CFU of the test organism (E. coli 345-2) containing 20 µg/mL nitrocefin was then added to 96-well microtitre plates containing serial twofold dilutions of antimicrobial peptides. Nitrocefin cleavage was monitored by measuring A490. All data were measured in triplicate.

[2] = test system: E. coli 122 inner membrane; experiment: Inner membrane permeabilization to ONPG; settings: read-out: IM permeabilization: peptide concentration resulting in half-maximal translocated substrate turnover, PBS pH 7.4, 30 °C, triplicate
Method: Inner membrane permeability was determined by measuring the β-galactosidase activity of lactose permease-deficient E. coli at 30 °C using ONPG as substrate. E. coli cells overexpressing the β- galactosidase enzyme (E. coli 122) were grown to logarithmic phase, washed, and resuspended (10^8 CFU/mL) in phosphate buffered saline pH 7.4. About 90 µL of 1 × 10^7 CFU of the test organism containing 0.4 mg/mL ONPG was then added to 96-well microtitre plates containing serial twofold dilutions of antimicrobial peptides. The production of o-nitrophenol was monitored spectrophotometrically at 420 nm. An equivalent volume of water replaced the peptide solution in the control assay. All data were measured in triplicate.

[3] = test system: E. coli 345-2; type: cell-based; settings: broth microdilution, Mueller Hinton (plus cations) broth, 24 hours at 37 °C; triplicate, averaged
[4] = test system: P. aeruginosa ATCC 27853; type: cell-based, Pseudomonas aeruginosa; settings: broth microdilution, Mueller Hinton (plus cations) broth, 24 hours at 37 °C, no visible growth; triplicate, averaged
Method: (§1) Minimum inhibitory concentrations (MIC) of the peptides were determined by broth microdilution according to the Clinical and Laboratory Standards Institute. About 90 µL of 0.5–1 × 10^6 CFU/mL of Pseudomonas aeruginosa ATCC 27853 and E. coli ATCC 25922 in Mueller Hinton media (plus cations) broth (BD, Baltimore, MD, USA) was incubated in 96-well microtitre plates with serial twofold dilutions of the peptides. Minimum inhibitory concentrations (MICs) were defined as the lowest peptide concentration with no visible growth of bacteria after 24 hours at 37 °C. All measurements were made in triplicate and averaged.

[5] = test system: E. coli UB 122; type: cell-based; settings: broth microdilution, Mueller Hinton (plus cations) broth, 24 hours at 37 °C; triplicate, averaged
[6] = test system: E. coli ATCC 25922; type: cell-based; settings: broth microdilution, Mueller Hinton (plus cations) broth, 24 hours at 37 °C, no visible growth; triplicate, averaged
Method: as §1

Polymyxin E
EC50 ([1]; +Mg2+ (0.4 mM MgCl2), nitrocefin, 10 mM HEPES pH 7.4): 1800 nM | EC50 ([1]; −Mg2+, nitrocefin 20 µg/mL, 10 mM HEPES pH 7.4, A490): 2000 nM | EC50 ([2]; +Mg2+ (0.4 mM MgCl2), ONPG): > 100000 nM | EC50 ([2]; −Mg2+, ONPG 0.4 mg/mL, 420 nm): > 40000 nM | MIC E. coli 345-2 [3]: 0.5 µM | MIC P. aeruginosa ATCC 27853 [4]: 2 µM | MIC E. coli UB 122 [5]: 0.5 µM | MIC E. coli ATCC 25922 [6]: 1 µM
